{"source": "patent US7951928B2", "about": "“Gene encoding a protein and preventive/remedy for neurodegenerative diseases such as polyglutamine diseases by utilizing the same” (Tokyo Medical and Dental University, priority 2004, dated 2011)", "key": {"[1]": {"system": "primary cultured cortical neurons", "experiment": "Measurement of uptake of BrU (transcription) in AMA-treated cortical neurons", "format": "cell-based, rat", "settings": "three different concentrations of AMA"}, "[2]": {"system": "primary cultured cerebellar neurons", "experiment": "Measurement of uptake of BrU (transcription) in AMA-treated cerebellar neurons", "format": "cell-based, rat", "settings": "three different concentrations of AMA", "experimental": "(§1) First, solutions containing three different concentrations of AMA were added to culture media of Hela cells, primary cultured cortical neurons of rat embryo (E15), and primary cultured cerebellar neurons of rat. […] The AMA-induced cellular death was significant particularly in the primary cultured neurons and their half-life period was five days or more—the primary cultured neurons died obviously earlier than those that had not been treated with AMA. […] In this AMA-induced cellular death, neuronal cell death progressed very slowly as compared with low-potassium-induced apoptosis of cerebellar neurons.\nA cerebral cortical tissue segregated from E17 Wistar rat embryo and a cerebellar tissue segregated from P7 Wistar rat novelborn were shredded with a razor, and treated with a phosphate buffered saline (hereinafter referred to as “PBS”; pH 7.5) containing 0.25% trypsin (Gibco) at 37° C. for 20 min, with gentle shaking every 5 min. Subsequently, the reaction was quenched by replacing the PBS with DMEM containing a 50% fetal bovine serum (hereinafter referred to as “FBS”), and DNaseI (Boehringer Mannheim) was added to a final concentration of 100 μg/ml. The tissues were segregated gently by pipetting with a blue tip. […]"}, "[3]": {"system": "primary cultured neurons", "experiment": "AMA-induced cellular death of primary cultured neurons (Trypan Blue cellular death assay)", "format": "cell-based, rat", "experimental": "as §1\nA cerebral cortical tissue segregated from E17 Wistar rat embryo and a cerebellar tissue segregated from P7 Wistar rat novelborn were shredded with a razor, and treated with a phosphate buffered saline (hereinafter referred to as “PBS”; pH 7.5) containing 0.25% trypsin (Gibco) at 37° C. for 20 min, with gentle shaking every 5 min. Subsequently, the reaction was quenched by replacing the PBS with DMEM containing a 50% fetal bovine serum (hereinafter referred to as “FBS”), and DNaseI (Boehringer Mannheim) was added to a final concentration of 100 μg/ml. The tissues were segregated gently by pipetting with a blue tip. The cells were filtrated through a nylon mesh (FALCON, pore size: […]) by centrifuge for precipatation and resuspended in DMEM additionally containing 20 mM glucose, 16 mM sodium hydrogen carbonate, 4 mM glutamine, 25 μg/ml gentamicin and 10% FBS. The suspension was added into a polylysine-coated 24-well plate (Corning) and the cells were cultured so that each well has 3×10^5 cells. After 12 hours, cytosine arabinoside was added to the culture wells to a final concentration of […] in order to prevent glial cell proliferation. […]\nThe cells were treated for 5 min with 0.4% Trypan Blue solution (Invitrogen). […] In these spots the numbers of blue-stained cells (dead cells) and non-stained cells (living cells) were counted to a total of at least 2,000."}, "[4]": {"system": "Hela cells", "experiment": "AMA-induced cellular death of Hela cells", "format": "cell-based", "settings": "AMA-treated Hela cells", "experimental": "as §1\nThe cells were treated for 5 min with 0.4% Trypan Blue solution (Invitrogen). In each experiment, 10-20 spots were randomly selected from each of the three dishes at 100× magnification. In these spots the numbers of blue-stained cells (dead cells) and non-stained cells (living cells) were counted to a total of at least 2,000."}, "[5]": {"system": "cell line and primary neurons", "experiment": "Genome DNA analysis for DNA ladders after AMA treatment", "format": "cell-based", "settings": "genome DNA analysis of the cell line and primary neurons after AMA treatment"}, "[6]": {"system": "YAP", "experiment": "Northern blotting of YAP expression after AMA", "format": "cell-based, rat", "settings": "transcription stage", "experimental": "Next, in order to clarify the molecular mechanism underlying the OP (omega process), we performed microarray analysis. Expression of genes associated with AMA-induced cellular death of cortical neurons and cerebellar neurons and expression of genes associated with low-potassium-induced apoptosis of cerebellar neuron were compared. Experiment was performed twice for each type of cellular death. This microarray analysis led to the identification of 8 genes that offered different expression levels both in apoptosis and OP, and 11 genes that offered different expression levels specifically in OP. The latter set of genes contained YAP, a transcriptional activation factor (coactivator) which is known to play a key role in p73-mediated apoptosis.\nTen micrograms of total RNA extracted from the primary cultured neurons was electrophoresed on a MOPS/formaldehyde gel. The separated RNA fragments were transferred and immobilized to Hybond-N (Pharmacia) by UV cross-linking (exposure dose=120,000 μJ/cm^2). The full-length cDNA with the 61nt insert was cleaved from pBSins61 and purified by passing it through a gel and labeled with [a32P]dCTP (Amersham) using Random Primer DNA-labeling kit (Takara). The probes labeled with 32P were reacted with a nylon film at 60° C. and allowed to stand overnight for permeation. […]"}}}
{"smiles": "CC[C@H](C)[C@@H]1NC(=O)CNC(=O)[C@@H]2Cc3c([nH]c4cc(O)ccc34)[S+]([O-])C[C@@H](NC(=O)CNC1=O)C(=O)N[C@@H](CC(N)=O)C(=O)N1C[C@H](O)C[C@H]1C(=O)N[C@@H]([C@@H](C)[C@@H](O)CO)C(=O)N2", "note": "(stereo in doubt) [AMA, α-amanitin]", "values": [{"measurement": "transcription (uptake of BrU)", "setting": "[1]", "result": "suppressed transcription"}, {"measurement": "transcription (uptake of BrU)", "setting": "[2]", "result": "suppressed transcription"}, {"measurement": "concentration dependence of cellular death rate", "setting": "[3]; AMA 10 μg/ml to 250 μg/ml", "result": "dependent on AMA concentration"}, {"measurement": "cellular death (proportion of living cells)", "setting": "[3]; AMA-treated neurons", "result": "induces progressive cellular death"}, {"measurement": "time before half the population of the neural cells died (half-life period)", "setting": "[3]; neuronal cells treated with α-amanitin", "result": "≥ 120", "unit": "h"}, {"measurement": "cellular death (proportion of living cells)", "setting": "[4]", "result": "induces progressive cellular death"}, {"measurement": "DNA ladders", "setting": "[5]", "result": "no DNA ladders were observed"}, {"measurement": "YAP expression", "setting": "[6]", "result": "down-regulated YAP expression"}]}
